In patent publication US6399824B1, “Substituted cinnamic, acid guanidides, process for their preparation, their use as a medicament, and medicament comprising them” (Aventis Pharma Deutschland GmbH, priority 2000, dated 2002) one finds IC50 and solubility data, which are given here for 14 compounds.

Counter-ions that a name gives are not always drawn.

One series deals with T1, rNHE3 (Rattus norvegicus, UniProt P26433).
T1 construct: expressed in transfected cells
Briefly: Recovery of intracellular pH (pHi) after acidification, BCECF fluorescence, NHE inhibition. In kind it is cell-based. The conditions noted are these: pH recovery recorded 3 minutes for NHE3; bicarbonate-free conditions. The procedure: In this test, the recovery of the intracellular pH (pHi) which commences with functional NHE after acidification even under bicarbonate-free conditions. For this, the pHi was determined using the pH-sensitive fluorescent dye BCECF (Calbiochem, the precursor BCECF-AM is employed). The cells were first loaded with BCECF. The BCECF fluorescence was determined in a ratio fluorescence spectrometer (Photon Technology International, South Brunswick, N.J., USA) at excitation wavelengths of 505 and 440 nm and an emission wavelength of 535 nm and converted into the pHi by means of calibration curves. During BCECF loading, the cells were already incubated in NH4Cl buffer (pH 7.4) (NH4Cl buffer: 115 mM NaCl, 20 mM NH4Cl, 5 mM KCl, 1 mM CaCl2, 1 mM MgSO4, 20 mM Hepes, 5 mM glucose, 1 mg/ml of BSA; a pH of 7.4 is set using 1 M NaOH). The intracellular acidification was induced by addition of 975 μl of an NH4Cl-free buffer (see below) to 25 μl aliquots of the cells incubated in NH4Cl buffer. The subsequent rate of the pH recovery was recorded for 2 minutes in the case of NHE1, for 5 minutes in the case of NHE2 and 3 minutes in the case of NHE3. For the calculation of the inhibitory potency of the tested substances, the cells were first investigated in buffers in which a complete recovery or no pH recovery at all took place. For complete pH recovery (100%), the cells were incubated in Na^+-containing buffer (133.8 mM NaCl, 4.7 mM KCl, 1.25 mM CaCl2, 1.25 mM MgCl2, 0.97 mM Na2HPO4, 0.23 mM NaH2PO4, 5 mM Hepes, 5 mM glucose, a pH of 7.0 is set using 1 M NaOH). For the determination of the 0% value, the cells were incubated in an Na^+-free buffer (133.8 mM choline chloride, 4.7 mM KCl, 1.25 mM CaCl2, 1.25 mM MgCl2, 0.97 mM K2HPO4, 0.23 mM KH2PO4, 5 mM Hepes, 5 mM glucose, a pH of 7.0 is set using 1 M NaOH). The substances to be tested were applied in the Na^+-containing buffer. The recovery of the intracellular pH at any tested concentration of a substance was expressed as a percentage of the maximum recovery. By means of the program Sigma Plot, the IC50 value of the respective substance for the individual NHE subtypes was calculated from the percentage values of the pH recovery.

A short description of series [1]: Solubility by UV spectroscopy in 0.9% strength NaCl solution. In kind it is physicochemical. The conditions noted are these: 0.9% NaCl solution, saline or isotonic. On the procedure:
The solubilities indicated below are determined by UV spectroscopy in a 0.9% strength NaCl solution.

T1 sequence (P26433 29-831): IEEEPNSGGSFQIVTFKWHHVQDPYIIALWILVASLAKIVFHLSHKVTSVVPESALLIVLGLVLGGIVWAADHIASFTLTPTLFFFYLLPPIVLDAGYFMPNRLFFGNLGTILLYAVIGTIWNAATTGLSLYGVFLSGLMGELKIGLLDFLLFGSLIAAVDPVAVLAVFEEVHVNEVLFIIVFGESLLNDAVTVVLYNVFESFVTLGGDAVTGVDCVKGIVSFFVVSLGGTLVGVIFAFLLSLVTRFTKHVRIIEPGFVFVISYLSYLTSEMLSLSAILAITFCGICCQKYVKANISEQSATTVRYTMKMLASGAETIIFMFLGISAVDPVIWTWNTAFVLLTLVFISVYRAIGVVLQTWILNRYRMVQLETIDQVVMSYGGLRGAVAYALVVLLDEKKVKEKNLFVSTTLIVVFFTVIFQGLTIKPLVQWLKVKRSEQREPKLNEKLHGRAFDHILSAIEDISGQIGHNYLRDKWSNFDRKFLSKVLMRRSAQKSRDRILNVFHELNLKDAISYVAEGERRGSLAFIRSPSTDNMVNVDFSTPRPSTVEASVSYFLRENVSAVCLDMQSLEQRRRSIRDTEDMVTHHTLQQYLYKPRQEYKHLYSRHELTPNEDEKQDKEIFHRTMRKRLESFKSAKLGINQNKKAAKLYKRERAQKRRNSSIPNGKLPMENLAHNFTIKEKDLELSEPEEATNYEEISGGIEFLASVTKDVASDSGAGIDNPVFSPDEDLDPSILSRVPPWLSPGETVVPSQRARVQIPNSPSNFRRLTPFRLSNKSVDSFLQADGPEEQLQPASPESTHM

For `C/C(=C\c1cc(F)c(Oc2ccc(S(N)(=O)=O)cc2)c(F)c1)C(=O)N=C(N)N` [Example 1, 4-[2,6-Difluoro-4-(3-guanidino-2-methyl-3-oxopropenyl)phenoxy]benzenesulfonamide; HCl salt], the half-maximal inhibitory concentration (IC50) (in general, the concentration needed to halve the response being measured) on rNHE3 stood at 70 nM.

`C/C(=C\c1cc(F)c(Oc2ccc(S(N)(=O)=O)cc2)c(F)c1)C(=O)N=C(N)N` [Example 2, 4-[2,6-Difluoro-4-(3-guanidino-2-methyl-3-oxopropenyl)phenoxy]benzenesulfonamide; methanesulfonate] had a 50% inhibitory concentration (IC50) at rNHE3 of 20 nM.

At rNHE3, `C/C(=C\c1ccc(Oc2ccc(S(N)(=O)=O)cc2)cc1)C(=O)N=C(N)N` [Example 3, 4-[4-(3-Guanidino-2-methyl-3-oxopropenyl)phenoxy]benzenesulfonamide; HCl salt] showed an IC50 of 130 nM.

Regarding `C/C(=C\c1ccc(Nc2ccc(S(N)(=O)=O)cc2)cc1)C(=O)N=C(N)N` [Example 4, 4-[4-(3-Guanidino-2-methyl-3-oxopropenyl)phenylamino]benzenesulfonamide; trifluoroacetate], on rNHE3, half-maximal inhibition (IC50) was put at 620 nM.

The compound `C/C(=C\c1ccc(Nc2cccc(S(N)(=O)=O)c2)cc1)C(=O)N=C(N)N` [Example 5, 3-[4-(3-Guanidino-2-methyl-3-oxopropenyl)phenylamino]benzenesulfonamide, trifluoroacetate] displayed an IC50 against rNHE3 of 1200 nM.

Turning to `C/C(=C\c1cc(F)c(Oc2ccc(S(=O)(=O)NCCN(C)C)cc2)c(F)c1)C(=O)N=C(N)N.Cl.Cl` [Example 6, 4-[2 ,6-Difluoro-4-(3-guanidino-2-methyl-3-oxopropenyl)phenoxy]-N-(2-dimethylaminoethyl)benzenesulfonamide, HCl salt], on rNHE3, half-maximal inhibition (IC50) was put at 60 nM. The solubility (as a rule, the dissolved amount per volume that the medium holds) in series [1] came out at 1860 µg/mL.

`C/C(=C\c1cc(F)c(Oc2ccc(S(=O)(=O)N3CCN(C)CC3)cc2)c(F)c1)C(=O)N=C(N)N` [Example 7, N-(3-{3,5-Difluoro-4-[4-(4-methylpiperazin-1-sulfonyl)phenoxy]phenyl}-2-methyl-acryloyl)guanidine; trifluoroacetate] showed an IC50 against rNHE3 of 2600 nM. Besides, the solubility in series [1] is greater than 2190 µg/mL.

`CNC(=O)NS(=O)(=O)c1ccc(Oc2c(F)cc(/C=C(\C)C(=O)N=C(N)N)cc2F)cc1` [Example 8, 4-[2 ,6-Difluoro-4-(3-guanidino-2-methyl-3-oxopropenyl)phenoxy]benzenesulfone N-(carboxy-N′-methylamid)amide; HCl salt] registered a concentration for half-maximal inhibition (IC50) against rNHE3 of 90 nM.

`CCNC(=O)NS(=O)(=O)c1ccc(Oc2c(F)cc(/C=C(\C)C(=O)N=C(N)N)cc2F)cc1` [Example 9, 4-[2,6-Difluoro-4-(3-guanidino-2-methyl-3-oxopropenyl)phenoxy]benzenesulfone N-(carboxy-N′-ethylamid)amide; HCl salt] displayed an IC50 against rNHE3 of 70 nM.

Consider `C/C(=C\c1ccc(Nc2ccc(S(=O)(=O)NCCN(C)C)cc2)cc1)C(=O)N=C(N)N.Cl.Cl` [Example 10, N-(2-Dimethylaminoethyl)-4-[4-(3-guanidino-2-methyl-3-oxopropenyl)phenylamino]-benzenesulfonamide; HCl salt], for which half-maximal inhibition against rNHE3 (IC50) required 1100 nM. The compound further displayed a solubility in series [1] of 1280 µg/mL.

For `C/C(=C\c1ccc(Nc2ccc(S(=O)(=O)NCCN3CCCC3)cc2)cc1)C(=O)N=C(N)N.Cl.Cl` [Example 11, 4-[4-(3-Guanidino-2-methyl-3-oxopropenyl)phenylamino]-N-(2-pyrrolidin-1-ylethyl)-benzenesulfonamide; HCl salt], 850 nM corresponded to half-maximal inhibition against rNHE3 (IC50). For the same compound, the solubility in series [1] turned out to be 1520 µg/mL.

In turn, `C/C(=C\c1ccc(Nc2ccc(S(=O)(=O)N3CCN(C)CC3)cc2)cc1)C(=O)N=C(N)N.Cl.Cl` [Example 12, N-(2-Methyl-3-{4-[4-(4-methylpiperazine-1-sulfonyl)phenylamino]phenyl}acryloyl)-guanidine; HCl salt] showed a 50% inhibitory concentration (IC50) at rNHE3 of 2600 nM. In series [1], this compound returned a solubility of 1760 µg/mL.

In turn, `C/C(=C\c1ccc(Nc2ccc(S(=O)(=O)N(C)C3CCN(C)C3)cc2)cc1)C(=O)N=C(N)N.Cl.Cl` (centres unmarked) [Example 13, 4-[4-(3-Guanidino-2-methyl-3-oxopropenyl)phenylamino]-N-methyl-N-(1-methyl-pyrrolidin-3-yl)benzenesulfonamide, HCl salt] registered a half-maximal inhibitory concentration (IC50) against rNHE3 of 590 nM. In series [1], this compound showed a solubility of 3080 µg/mL.

In the case of `CNS(=O)(=O)c1ccc(Nc2ccc(/C=C(\C)C(=O)N=C(N)N)cc2)cc1` [Example 14, 4-[4-(3-Guanidino-2-methyl-3-oxopropenyl)phenylamino]-N-methylbenzenesulfonamide; HCl salt], on rNHE3, inhibition was half-maximal at 850 nM (IC50).
